This note sets out measurements from US9650402B2, “Heterodinuclear platinum-ruthenium complexes, preparation thereof and therapeutic use thereof” (City University of Hong Kong, priority 2015, dated 2017).

One data set concerns A2780cisR cells. Kind of data set: MTT cytotoxicity assay, cDDP-resistant A2780cisR cells. To be noted: 72-h exposure. It is filed as cell-based, Human. How it is done:
(§1) Human ovarian carcinoma (A2780) and cDDP-resistant A2780 (A2780cisR) cells were cultured in RPMI 1640 with 10% FBS and 100 units penicillin/streptomycin. HeLa cells, adenocarcinomic human alveolar basal epithelial cells (A549) and cDDP-resistant A549 (A549cisR) cells were cultured in DMEM containing 10% FBS and 100 units penicillin/streptomycin. All cells were incubated at 37° C. under 5% CO2. The cDDP-resistant cells, A549cisR and A2780cisR were generated from their parental A549 or A2780 cells. Briefly, A549 or A2780 cells were cultured in complete medium containing 0.5 μg/mL cisplatin at the beginning for the first screening, and the remaining cells were cultured in complete medium containing 1.0 μg/mL cisplatin for at least 4 weeks until the resistance was obtained. An MTT assay was used to evaluate the cytotoxicity of cDDP and the subject heterodinuclear Pt—Ru compounds Ruthplatin-1, 2, 3 and 4 against A2780, A2780cisR, A549, A549cisR and HeLa. The results of this assay are depicted in Table 1 of FIG. 9. […] The results of this assay are depicted in Table 2 of FIG. 10. […] After incubating for 72 h, the original medium was removed and 0.2 mL fresh medium containing 1 mg/mL MTT was added to each well. After staining for 4 h, the medium was replaced by DMSO. The absorbance was tested at 570 and 630 nm. A control was set as medium without compound. […]

The next data set deals with A549 cells. The data set is described as follows: MTT cytotoxicity assay, A549 cells. It is filed as cell-based, human. To be noted: 72-h exposure. How it is done: as §1
A further data set has as its system A549cisR cells. The data set is described as follows: MTT cytotoxicity assay, cDDP-resistant A549cisR cells. To be noted: 72-h exposure. The data set is classed as cell-based, human. How it is done: as §1
The next data set relates to HeLa cells. The data set is described as follows: MTT cytotoxicity assay, HeLa cells. It is filed as cell-based. To be noted: 72-h exposure. As for the experimental part:
as §1

Data set [1] concerns A2780, A2780cisR, A549, A549cisR and HeLa. Kind of data set: MTT cytotoxicity assay, all cell lines tested. It is filed as cell-based. To be noted: each of the cell lines, 72-h exposure. How it is done: Human ovarian carcinoma (A2780) and cDDP-resistant A2780 (A2780cisR) cells were cultured in RPMI 1640 with 10% FBS and 100 units penicillin/streptomycin. HeLa cells, adenocarcinomic human alveolar basal epithelial cells (A549) and cDDP-resistant A549 (A549cisR) cells were cultured in DMEM containing 10% FBS and 100 units penicillin/streptomycin. All cells were incubated at 37° C. under 5% CO2. The cDDP-resistant cells, A549cisR and A2780cisR were generated from their parental A549 or A2780 cells. Briefly, A549 or A2780 cells were cultured in complete medium containing 0.5 μg/mL cisplatin at the beginning for the first screening, and the remaining cells were cultured in complete medium containing 1.0 μg/mL cisplatin for at least 4 weeks until the resistance was obtained.
An MTT assay was used to evaluate the cytotoxicity of cDDP and the subject heterodinuclear Pt—Ru compounds Ruthplatin-1, 2, 3 and 4 against A2780, A2780cisR, A549, A549cisR and HeLa. The results of this assay are depicted in Table 1 of FIG. 9. […]
For each of these assays, cells were seeded in 96-well plates at a density of 1,500 cells per well (for A2780, A549 and HeLa) or 2,500 cells per well (for A2780cisR and A549cisR) and were incubated till their confluency reached about 30%. […] The absorbance was tested at 570 and 630 nm. […]

In the case of `Cc1ccc(C(C)C)cc1.[NH3+][Pt-2]([NH3+])([OH])([Cl])([Cl])[O]C(=O)CCc1ccc[n+]([Ru-]2[O]C(=O)C(=O)[O]2)c1` [Ruthplatin-4], the “RF (resistant factor) = IC50 in A2780cisR/IC50 in A2780” value with A2780cisR cells came out at 2.1. In addition, in the data set on A549 cells, the “cytotoxicity in A549 cells (compared with cisplatin)” value was “significantly increased cytotoxicity”. Also, the “RF (resistant factor) = IC50 in A549cisR/IC50 in A549, compared with cisplatin” value in the data set on A549cisR cells (A549/A549cisR cells) is given as “decreases”. The “cytotoxicity in A549cisR cells (compared with cisplatin)” value in the data set with A549cisR cells (A549cisR cells) is on record as “significantly increased cytotoxicity”. For the same molecule, the “activity against the proliferation of HeLa cells” value with HeLa cells is reported as “very active”. Also, the “IC50 values compared with cDDP” value in data set [1] is given as “significantly lower than that of cDDP”.

As to `[NH2][Pt]([NH2])([Cl])[Cl]` [cDDP, Cisplatin, reference compound], the “RF (resistant factor) = IC50 in A2780cisR/IC50 in A2780” value with A2780cisR cells is reported as 17.4.
